This note sets out measurements from article PMC8626775, “Anti-schistosomal activities of quinoxaline-containing compounds: From hit identification to lead optimisation” (European Journal of Medicinal Chemistry, 2021).

Series [1] has as its system S. mansoni adult worms. In words: In vitro laid egg (IVLE) production by S. mansoni adult worm pairs, 72 h. Format: cell-based, Schistosoma mansoni. As to conditions: 0.0024–10 μM. As for the experimental part: For the evaluation of anti-schistosomal activity on the adult stage of the parasite, 7-wk old worms were transferred into 48 well tissue culture plates (1–3 worm pairs/well, in duplicate). […] DMSO (0.5%) and praziquantel (10 μM in 0.5% DMSO) were also included as negative and positive control treatments. Treated adult worms were incubated for 72 h in a humidified environment containing 5% CO2 at 37 °C. Parasite motility after compound treatment was assessed by a digital image processing-based system (WormassayGP2), modified after Wormassay. Following compound-parasite co-incubation, eggs were collected, fixed in formalin (10% v/v formaldehyde) and enumerated aiming to collect further information on any compound-induced effects on parasite fecundity and IVLE production.

The test system of series [2] is HepG2 cells. Put plainly: HepG2 MTT cytotoxicity assay. The method, boiled down: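 HepG2 cells seeded at 2 × 10^4 cells/well, cultured at 37 °C in 5% CO2. Viability by MTT, formazan absorbance at 570 nm. The cytotoxicity value served for computing compound selectivity index.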
For orientation: Tetrazolium assays rely on reduction of a dye to a coloured formazan, in cell work by metabolically active cells.

Series [3] relates to Juvenile S. mansoni worms. Put plainly: S. mansoni juvenile worm screen (motility score, propidium iodide uptake), 72 h. Format: cell-based, Schistosoma mansoni. Particulars: for EC50: 3 week juvenile S. mansoni; for PI pos: juvenile worms, Fig. S4. From the text:
Mice (Mus musculus HsdOLa:TO - Tuck Ordinary; Envigo, UK) were used for the mammalian-specific propagation of the S. mansoni life cycle. Experimental animals were infected with 4000 or 180 S. mansoni cercariae/mouse and perfused three- or seven-weeks post-infection to obtain S. mansoni juvenile or adult worms, respectively. Preparation steps following perfusion have been described previously. Briefly, the parasite material was washed three times with pre-warmed adult worm media (DMEM (Gibco, Paisley, UK) supplemented with 10% (v/v) Fetal Calf Serum (FCS, Gibco, Paisley, UK), 1% (v/v) L-glutamine (Gibco, Paisley, UK) and an antibiotic mixture (150 Units/ml penicillin and 150 μg/ml streptomycin; Gibco, UK)) to remove residual host contamination and incubated in a humidified environment containing 5% CO2 at 37 °C for at least 1 h.
Juvenile worms were distributed in a 96-well tissue culture plate (n = 20–25 individuals/well) containing 200 μl/well. Compounds were added to each treatment well at a concentration range of 10–0.156 μM. Negative (1.25% DMSO) and positive (15 μM PZQ and 15 μM AUR in 1.25% DMSO) controls were also included in each drug screen. Treated juvenile worms were incubated for 72 h in a humidified environment containing 5% CO2 at 37 °C. Compound-induced phenotype and motility effects were quantified using an adapted version of the WHO-TDR scoring system (in summary: 0 = dead, 1 = movement of the suckers only and slight contraction of the body, 2 = movement at the anterior and posterior regions only, 3 = full body movement but sluggish and 4 = normal movement). Additionally, differential uptake of propidium iodide (PI, P1304MP, Sigma-Aldrich, UK) was used to quantify worm viability as previously described. In brief, after 15 min incubation with 2 μg/ml PI, the parasite cultures were imaged under both bright-field and fluorescent settings (PI detection, 562 and 624 excitation and emission wavelengths, respectively) using an ImageXpressXL high content imager (Molecular Devices, UK). Enumeration of PI positive and negative juvenile worms was manually performed across all parasites within the well and the percentage of PI positive parasite was calculated per well.

The nature of series [4]: in vitro. As to conditions: human, TK6 lymphoblastoid cells. As for the experimental part: (§1) The in vitro micronucleus (MN) assay was employed for the assessment of chromosome damage. Human, p53 competent, lymphoblastoid TK6 cells (Cat. No. 95111735) were used in this study and obtained from the European Collection of Authenticated Cell Cultures (ECACC)). RPMI 1640 (Gibco, Paisley, UK) culture media supplemented with 1% penicillin/streptomycin (100 U/ml Penicillin and 100 μg/ml Streptomycin), 10% heat inactivated horse serum (Gibco, Paisley, UK), 1% L-glutamine (Gibco, Paisley, UK) and hygromycine-B was used for TK6 cell culture. Cells were incubated at 37 °C in a humidified atmosphere of 5% (v/v) CO2.

Series [5] relates to TK6 cells. In words: Genotoxicity assessment in TK6 cells (micronucleus, ɣH2AX, p53, cell cycle). As to the method: as §1

Entries after “also recorded” stand apart in the source; their conditions may differ.

For `O=[N+]([O-])c1ccc2nc(Nc3cc(C(F)(F)F)ccc3F)c(Nc3cc(C(F)(F)F)ccc3F)nc2c1` [Compound 33, N2, N3-bis(2-fluoro-5-(trifluoromethyl)phenyl)-6-nitroquinoxaline-2,3-diamine], in series [1], the “Effect on IVLE production compared with PZQ” value was “more potent than PZQ”. Moreover, the “Toxicity on HepG2 in words” value in series [2] (24 h) is “low toxicity”. In addition, the “Selectivity Index (SI) Adult worms” value in series [2] (HepG2 CC50 versus adult worm EC50) is recorded as 17.87. The “Selectivity Index (SI) Somula” value in series [2] (HepG2 CC50 versus schistosomula EC50) is given as 0.66.

As for `O=[N+]([O-])c1ccc2nc(Nc3ccc(Cl)c(Cl)c3)c(Nc3ccc(Cl)c(Cl)c3)nc2c1` [Compound 22, N^2, N^3-bis(3,4-dichlorophenyl)-6-nitroquinoxaline-2,3-diamine], the EC50 stood at 201 nM in series [3] (72 h) and 200 nM in series [3] (Schistosoma mansoni, 72 h). Moreover, the “Concentration down to which parasite death of juvenile worms was induced” value in series [3] (72 h, supported by propidium iodide staining) amounted to 1.25 µM. The PI pos worked out at 0% in series [3] (0.156 µM); 10% in series [3] (0.312 µM); 20% in series [3] (0.625 µM); 100% in series [3] (1.25 µM); 100% in series [3] (2.50 µM); 100% in series [3] (5 µM). Also, the PI pos in series [3] (10 µM) is 100%. The same compound registered a 50% cytotoxic concentration (CC50) at 24 h in series [4] of 9.36 µM. Besides, the “Number of micronuclei (MNi) compared to DMSO treated cells” value in series [5] is reported as “did not change significantly”. The Cell-cycle analysis entry in series [5] (2 and 4 μM) is “G2/M phase arrest”. Besides, in series [5] (TK6 cells, 0.5, 2 and 4 μM), the Genotoxicity entry was “non-genotoxic; also recorded: does not induce genotoxicity”.

As a reminder, the EC50 is the concentration giving half of the maximal effect. Read a high EC50 as a less potent agent. As a reminder, the CC50 is the concentration at which the toxic effect on the cells reaches its halfway point. A higher CC50 goes with better tolerance by the cells.
